Read-outs that look alike come from different tables or passages of the source. Some results are limits rather than exact numbers.

Data set [1] relates to SMN2 minigene (full length SMN2 minigene mRNA containing SMN2 exon 7). Kind of data set: SMN2 minigene mRNA splicing RT-qPCR assay in cultured cells. The format is cell-based, human. To be noted: Homo sapiens, HEK293-H, read-out: EC1.5x for production of full length SMN2 mRNA. In a few lines: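 Read-out: full-length (exon 7-included) SMN2 minigene mRNA by multiplex RT-qPCR with GAPDH, efficiency-corrected (1+E)^−Ct, GAPDH-normalized and divided by vehicle. Stably transfected HEK293H cells, 24 h compound exposure, duplicates per concentration. Value is EC1.5x, reported as star ranges.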

A further data set concerns Smn protein. Nature of the data set: Smn protein assay in cultured cells (SMN HTRF). The format is cell-based, human. To be noted: 48 hours; for maximum fold (Fold) increase of Smn protein: SMA patient fibroblast cells, 7-point concentration data, fold increase relative to vehicle control (SMN HTRF); for EC1.5x (concentration giving 1.5-fold Smn protein increase): SMA Type 1 patient fibroblast cells (GM03813), 7-point concentration curve, SMN HTRF, concentration producing 1.5 times Smn protein vs DMSO vehicle control, read-out: EC1.5x for Smn protein expression. In a few lines: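 Lysates in RIPA with protease inhibitors are incubated overnight at room temperature with HTRF anti-SMN antibodies. EC1.5x is derived from fold increase in ΔF over vehicle.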

The mark [2] stands for this setting: HEK293H cells stably transfected with SMN2-A minigene, 24 hours, 7-point concentration curve, 1.5-fold relative to vehicle-treated cells.

Turning to `Cc1cc(F)c2nc(-c3cc4ccc(N5CCNC6(CCCC6)C5)cc4oc3=O)cn2c1` [Compound 599, 7-(6,9-diazaspiro[4.5]dec-9-yl)-3-(8-fluoro-6-methylimidazo[1,2-a]pyridin-2-yl)-2H-chromen-2-one], the melting point (commonly the temperature, or range, at which the solid turns liquid) lay in the range of 236 to 242 °C. Besides, the EC (1.5-fold) in data set [1] (setting [2]) lay within 0.1 to 0.3 µM. Further, the “maximum fold (Fold) increase of Smn protein” value (from here on “maximum fold (Fold) increase”) in the data set on Smn protein was “*** (fold increase between >1.35 and ≤1.5)”.

Regarding `Cc1cccn2cc(-c3cc4ccc(N5CCN6CCC5CC6)cc4oc3=O)nc12` [Compound 505, 7-(1,4-diazabicyclo[3.2.2]non-4-yl)-3-(8-methylimidazo[1,2-a]pyridin-2-yl)-2H-chromen-2-one], the melting point was 278 °C (dec.). Moreover, in data set [1] (24 h), the EC (1.5-fold) was in the range of 3 to 30 µM. Further, the “maximum fold (Fold) increase” value with Smn protein is on record as “* (maximum fold increase of ≤1.2)”.

Regarding `C[C@@H]1CN(c2ccc3cc(-c4nc5c(Cl)cccc5o4)c(=O)oc3c2)C[C@H](C)N1` [Compound 69, 3-(4-chloro-1,3-benzoxazol-2-yl)-7-[(3R,5S)-3,5-dimethylpiperazin-1-yl]-2H-chromen-2-one], the melting point lay in the range of 238 to 240 °C. Further, in data set [1] (setting [2]), the EC (1.5-fold) was 0.1 to 0.3 µM. Further, the “maximum fold (Fold) increase” value in the data set on Smn protein was “* (maximum fold increase of ≤1.2)”.

For `Cc1cccn2cc(-c3cc4ccc(N5CCN(C)CC5)cc4oc3=O)nc12` [Compound 84, 3-(8-methylimidazo[1,2-a]pyridin-2-yl)-7-(4-methylpiperazin-1-yl)-2H-chromen-2-one], the melting point was 224 to 226 °C. Further, the EC (1.5-fold) in data set [1] (setting [2]) lay in the range of 0.3 to 1 µM. Besides, in the data set on Smn protein, the EC1.5x (concentration giving 1.5-fold Smn protein increase) is 1000 to 3000 nM; the “maximum fold (Fold) increase” value is “*** (fold increase between >1.35 and ≤1.5)”.

As for `Cc1cc(C)c2nc(-c3cc4ccc(N5C[C@@H](C)N[C@@H](C)C5)cc4oc3=O)cn2c1` [Compound 262, 3-(6,8-dimethylimidazo[1,2-a]pyridin-2-yl)-7-[(3R,5S)-3,5-dimethylpiperazin-1-yl]-2H-chromen-2-one], the melting point was 227 to 237 °C. The EC (1.5-fold) in data set [1] (setting [2]) is 0.3 to 1 µM. Also, the “maximum fold (Fold) increase” value in the data set on Smn protein is “** (fold increase between >1.2 and ≤1.35)”.

Consider `Cc1ccc2nc(-c3cc4ccc(N5CC[C@H](NC(=O)OC(C)(C)C)C5)cc4oc3=O)cn2c1` [Compound 177, tert-butyl {(3S)-1-[3-(6-methylimidazo[1,2-a]pyridin-2-yl)-2-oxo-2H-chromen-7-yl]pyrrolidin-3-yl}carbamate], for which the melting point was 225 to 230 °C. Further, the EC (1.5-fold) in data set [1] (setting [2]) was 3 to 30 µM. Besides, the “maximum fold (Fold) increase” value in the data set with Smn protein is listed as “* (maximum fold increase of ≤1.2)”.

Regarding `C[C@@H]1CN(c2ccc3cc(-c4nc5ccccc5o4)c(=O)oc3c2)C[C@H](C)N1` [Compound 23, 3-(1,3-benzoxazol-2-yl)-7-[(3R,5S)-3,5-dimethylpiperazin-1-yl]-2H-chromen-2-one], the melting point fell in the range of 230 to 232 °C. In addition, in data set [1] (setting [2]), the EC (1.5-fold) was 1 to 3 µM. Also, in the data set with Smn protein, the “maximum fold (Fold) increase” value is reported as “* (maximum fold increase of ≤1.2)”.

Take `Cc1cnc2nc(-c3cc4ccc(N5CCN[C@@H](C)C5)cc4oc3=O)cn2c1` [Compound 462, 3-(6-methylimidazo[1,2-a]pyrimidin-2-yl)-7-[(3S)-3-methylpiperazin-1-yl]-2H-chromen-2-one]: the melting point was 254 to 256 °C. In addition, in data set [1] (setting [2]), the EC (1.5-fold) was below 0.1 µM. In addition, in the data set on Smn protein, the EC1.5x (concentration giving 1.5-fold Smn protein increase) lay within 1000 to 3000 nM; the “maximum fold (Fold) increase” value is “*** (fold increase between >1.35 and ≤1.5)”.

`COc1cc(-c2cc3ccc(N4CCN[C@@H](C)C4)cc3oc2=O)ccc1F` [Compound 577, 3-(4-fluoro-3-methoxyphenyl)-7-[(3S)-3-methylpiperazin-1-yl]-2H-chromen-2-one] had a melting point of 189 to 191 °C. Moreover, the EC (1.5-fold) in data set [1] (setting [2]) lay in the range of 1 to 3 µM. The “maximum fold (Fold) increase” value in the data set with Smn protein is “** (fold increase between >1.2 and ≤1.35)”.

For the origin of these results see USRE47689E1, “Compounds for treating spinal muscular atrophy” (PTC Therapeutics, Inc., priority 2011, dated 2019).
